Test system: CAG foci in primary DM1 patient myoblasts
Assay: Single-cut screening: CAG foci staining
Assay type: cell-based, human
Conditions: single sgRNA, DNA-PKi treated
Method in brief: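 Primary DM1 patient myoblasts were PFA-fixed and hybridized with […] (1 ng/μL, 15 min at 80° C) in 30% formamide/2×SSC, followed by anti-MBNL1 immunostaining and Hoechst counterstain. CAG RNA foci were quantified by high-content confocal imaging after single-cut SuCas9 sgRNA editing.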

Substance	% of CAG foci positive nuclei (DNA-PKi) [%]
CCTGACGTGGATGGGCAAACTG (guide RNA; chemistry not fully specified) [SluD09]	1.48
CCTGCAGTTTGCCCATCCACGT (guide RNA; chemistry not fully specified) [SluD11]	2.22
CCTGTAGCCTGTCAGCGAGTCG (listed as DNA, chemistry not fully specified) [SluD68]	1.94
CGAGAGCAGCGCAAGTGAGGAG (guide RNA; chemistry not fully specified) [SluD49]	2.3
CGAGGGTCGGGGGTGGGGGTCC (guide RNA; chemistry not fully specified) [SluD88]	2.42
CGCCCAGCTCCAGTCCTGTGAT (guide RNA; chemistry not fully specified) [SluU27]	1.94
CGCCCCCTAGCggccggggagg (guide RNA; as printed in the source, key not given here) [SluU41]	1.08
CGCCGAAGCGGGCGGAGCCGGC (guide RNA; chemistry not fully specified) [SluD58]	1.96
CGCGCCAGACGCTCCCCAGAGC (listed as DNA, chemistry not fully specified) [SluD34]	2.01
CGGAGCGGTTGTGAACTGGCAG (guide RNA; chemistry not fully specified) [SluU20]	1.43
CGGATCACAGGACTGGAGCTGG (guide RNA; chemistry not fully specified) [SluU29]	1.82
CGGCTCCGCCCGCTTCGGCGGT (guide RNA; chemistry not fully specified) [SluD60]	1.16
CGTGGATGGGCAAACTGCAGGC (guide RNA; chemistry not fully specified) [SluD12]	1.21
CTAGCggccggggagggagggg (guide RNA; as printed in the source, key not given here) [SluU47]	2.4
CTCAGTGCATCCAAAACGTGGA (guide RNA; chemistry not fully specified) [SluD77]	3.13
CTCCACGCACCCCCACCTATCG (guide RNA; chemistry not fully specified) [SluD22]	1.54
CTCCGAGAGCAGCGCAAGTGAG (guide RNA; chemistry not fully specified) [SluD52]	1.57
CTGCAGTTTGCCCATCCACGTC (guide RNA; chemistry not fully specified) [SluD10]	1.26
CTTCGAgccccgttcgccggcc (guide RNA; as printed in the source, key not given here) [SluU61]	1.46
CTTGTGCATGACGCCCTGCTCT (listed as DNA, chemistry not fully specified) [SluD32]	1.31
CTTTGCGAACCAACGATAGGTG (guide RNA; chemistry not fully specified) [SluD25]	1.35
CTTTTATTCGCGAGGGTCGGGG (guide RNA; chemistry not fully specified) [SluD93]	3.58
CTTTTGCCAAACCCGCTTTTTC (guide RNA; chemistry not fully specified) [SluD41]	1.44

Same assay, conditions: single sgRNA, vehicle

Substance	% of CAG foci positive nuclei (Vehicle) [%]
CCTGACGTGGATGGGCAAACTG (guide RNA; chemistry not fully specified) [SluD09]	1.16
CCTGCAGTTTGCCCATCCACGT (guide RNA; chemistry not fully specified) [SluD11]	1.7
CCTGTAGCCTGTCAGCGAGTCG (listed as DNA, chemistry not fully specified) [SluD68]	2.3
CGAGAGCAGCGCAAGTGAGGAG (guide RNA; chemistry not fully specified) [SluD49]	2.83
CGAGGGTCGGGGGTGGGGGTCC (guide RNA; chemistry not fully specified) [SluD88]	1.4
CGCCCAGCTCCAGTCCTGTGAT (guide RNA; chemistry not fully specified) [SluU27]	1.64
CGCCCCCTAGCggccggggagg (guide RNA; as printed in the source, key not given here) [SluU41]	0.74
CGCCGAAGCGGGCGGAGCCGGC (guide RNA; chemistry not fully specified) [SluD58]	1.37
CGCGCCAGACGCTCCCCAGAGC (listed as DNA, chemistry not fully specified) [SluD34]	3.9
CGGAGCGGTTGTGAACTGGCAG (guide RNA; chemistry not fully specified) [SluU20]	1.15
CGGATCACAGGACTGGAGCTGG (guide RNA; chemistry not fully specified) [SluU29]	1.18
CGGCTCCGCCCGCTTCGGCGGT (guide RNA; chemistry not fully specified) [SluD60]	1.02
CGTGGATGGGCAAACTGCAGGC (guide RNA; chemistry not fully specified) [SluD12]	4.65
CTAGCggccggggagggagggg (guide RNA; as printed in the source, key not given here) [SluU47]	1
CTCAGTGCATCCAAAACGTGGA (guide RNA; chemistry not fully specified) [SluD77]	1.8
CTCCACGCACCCCCACCTATCG (guide RNA; chemistry not fully specified) [SluD22]	0.76
CTCCGAGAGCAGCGCAAGTGAG (guide RNA; chemistry not fully specified) [SluD52]	1.26
CTGCAGTTTGCCCATCCACGTC (guide RNA; chemistry not fully specified) [SluD10]	2.84
CTTCGAgccccgttcgccggcc (guide RNA; as printed in the source, key not given here) [SluU61]	0.9
CTTGTGCATGACGCCCTGCTCT (listed as DNA, chemistry not fully specified) [SluD32]	1.43
CTTTGCGAACCAACGATAGGTG (guide RNA; chemistry not fully specified) [SluD25]	2.62
CTTTTATTCGCGAGGGTCGGGG (guide RNA; chemistry not fully specified) [SluD93]	1.63
CTTTTGCCAAACCCGCTTTTTC (guide RNA; chemistry not fully specified) [SluD41]	1.33

Test system: CUG foci in primary DM1 patient myoblasts
Assay: Single-cut screening: FISH staining of CUG RNA foci
Assay type: cell-based, human
Conditions: single sgRNA; primary DM1 patient myoblasts; DNA-PKi treated
Method in brief: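 CD56-purified primary DM1 patient myoblasts nucleofected with SluCas9:sgRNA RNP (30:90 pmol, single-cut), then DMSO or 3 μM DNA-PK inhibitor for 48 h. At 72 h post-nucleofection, cells fixed and stained for CUG foci with Cy3-PNA(CAG)5 probe (1 ng/μL, 80 °C), co-stained for MBNL1 and Hoechst, imaged by high-content confocal microscopy.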

Substance	% of CUG foci free nuclei (DNA-PKi) [%]
CCTGACGTGGATGGGCAAACTG (guide RNA; chemistry not fully specified) [SluD09]	33.83
CCTGCAGTTTGCCCATCCACGT (guide RNA; chemistry not fully specified) [SluD11]	52.55
CCTGTAGCCTGTCAGCGAGTCG (listed as DNA, chemistry not fully specified) [SluD68]	25.13
CGAGAGCAGCGCAAGTGAGGAG (guide RNA; chemistry not fully specified) [SluD49]	37.77
CGAGGGTCGGGGGTGGGGGTCC (guide RNA; chemistry not fully specified) [SluD88]	31.95
CGCCCAGCTCCAGTCCTGTGAT (guide RNA; chemistry not fully specified) [SluU27]	38.24
CGCCCCCTAGCggccggggagg (guide RNA; as printed in the source, key not given here) [SluU41]	47.52
CGCCGAAGCGGGCGGAGCCGGC (guide RNA; chemistry not fully specified) [SluD58]	31.45
CGCGCCAGACGCTCCCCAGAGC (listed as DNA, chemistry not fully specified) [SluD34]	31.92
CGGAGCGGTTGTGAACTGGCAG (guide RNA; chemistry not fully specified) [SluU20]	49.95
CGGATCACAGGACTGGAGCTGG (guide RNA; chemistry not fully specified) [SluU29]	48.49
CGGCTCCGCCCGCTTCGGCGGT (guide RNA; chemistry not fully specified) [SluD60]	16.87
CGTGGATGGGCAAACTGCAGGC (guide RNA; chemistry not fully specified) [SluD12]	23.77
CTAGCggccggggagggagggg (guide RNA; as printed in the source, key not given here) [SluU47]	12.71
CTCAGTGCATCCAAAACGTGGA (guide RNA; chemistry not fully specified) [SluD77]	28.94
CTCCACGCACCCCCACCTATCG (guide RNA; chemistry not fully specified) [SluD22]	20.98
CTCCGAGAGCAGCGCAAGTGAG (guide RNA; chemistry not fully specified) [SluD52]	26.8
CTGCAGTTTGCCCATCCACGTC (guide RNA; chemistry not fully specified) [SluD10]	27.41
CTTCGAgccccgttcgccggcc (guide RNA; as printed in the source, key not given here) [SluU61]	49.57
CTTGTGCATGACGCCCTGCTCT (listed as DNA, chemistry not fully specified) [SluD32]	26.23
CTTTGCGAACCAACGATAGGTG (guide RNA; chemistry not fully specified) [SluD25]	32.03
CTTTTATTCGCGAGGGTCGGGG (guide RNA; chemistry not fully specified) [SluD93]	26.14
CTTTTGCCAAACCCGCTTTTTC (guide RNA; chemistry not fully specified) [SluD41]	37.15

Same assay, conditions: single sgRNA; primary DM1 patient myoblasts; vehicle

Substance	% of CUG foci free nuclei (Vehicle) [%]
CCTGACGTGGATGGGCAAACTG (guide RNA; chemistry not fully specified) [SluD09]	12.5
CCTGCAGTTTGCCCATCCACGT (guide RNA; chemistry not fully specified) [SluD11]	14.54
CCTGTAGCCTGTCAGCGAGTCG (listed as DNA, chemistry not fully specified) [SluD68]	12.88
CGAGAGCAGCGCAAGTGAGGAG (guide RNA; chemistry not fully specified) [SluD49]	12.39
CGAGGGTCGGGGGTGGGGGTCC (guide RNA; chemistry not fully specified) [SluD88]	11.11
CGCCCAGCTCCAGTCCTGTGAT (guide RNA; chemistry not fully specified) [SluU27]	7.71
CGCCCCCTAGCggccggggagg (guide RNA; as printed in the source, key not given here) [SluU41]	13.34
CGCCGAAGCGGGCGGAGCCGGC (guide RNA; chemistry not fully specified) [SluD58]	18.03
CGCGCCAGACGCTCCCCAGAGC (listed as DNA, chemistry not fully specified) [SluD34]	15
CGGAGCGGTTGTGAACTGGCAG (guide RNA; chemistry not fully specified) [SluU20]	18.45
CGGATCACAGGACTGGAGCTGG (guide RNA; chemistry not fully specified) [SluU29]	27.28
CGGCTCCGCCCGCTTCGGCGGT (guide RNA; chemistry not fully specified) [SluD60]	6.71
CGTGGATGGGCAAACTGCAGGC (guide RNA; chemistry not fully specified) [SluD12]	17.76
CTAGCggccggggagggagggg (guide RNA; as printed in the source, key not given here) [SluU47]	5.91
CTCAGTGCATCCAAAACGTGGA (guide RNA; chemistry not fully specified) [SluD77]	14.94
CTCCACGCACCCCCACCTATCG (guide RNA; chemistry not fully specified) [SluD22]	7.86
CTCCGAGAGCAGCGCAAGTGAG (guide RNA; chemistry not fully specified) [SluD52]	7.59
CTGCAGTTTGCCCATCCACGTC (guide RNA; chemistry not fully specified) [SluD10]	13.43
CTTCGAgccccgttcgccggcc (guide RNA; as printed in the source, key not given here) [SluU61]	17.78
CTTGTGCATGACGCCCTGCTCT (listed as DNA, chemistry not fully specified) [SluD32]	19.22
CTTTGCGAACCAACGATAGGTG (guide RNA; chemistry not fully specified) [SluD25]	26.87
CTTTTATTCGCGAGGGTCGGGG (guide RNA; chemistry not fully specified) [SluD93]	11.34
CTTTTGCCAAACCCGCTTTTTC (guide RNA; chemistry not fully specified) [SluD41]	8.97

Test system: 3′ UTR of the human DMPK gene
Assay: Single-cut screening: indel editing efficiency by Sanger sequencing and ICE analysis in primary DM1 patient myoblasts
Assay type: cell-based
Conditions: single SluCas9 sgRNA RNP in primary DM1 patient myoblasts; Sanger sequencing and ICE analysis; vehicle-treated samples
Method in brief: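 Indels were estimated by ICE from Sanger chromatograms of PCR amplicons covering the DMPK 3′ UTR wild-type allele, using only vehicle-treated samples; sgRNAs with R2<0.9 are flagged. Samples came from primary DM1 patient myoblasts (2 × 10^5) harvested 72 h after nucleofection with 30 pmol SluCas9 and 90 pmol single sgRNA RNP.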

Substance	Indel efficiency [%]
CCTGACGTGGATGGGCAAACTG (guide RNA; chemistry not fully specified) [SluD09]	5
CCTGCAGTTTGCCCATCCACGT (guide RNA; chemistry not fully specified) [SluD11]	16
CCTGTAGCCTGTCAGCGAGTCG (listed as DNA, chemistry not fully specified) [SluD68]	72
CGAGAGCAGCGCAAGTGAGGAG (guide RNA; chemistry not fully specified) [SluD49]	41
CGAGGGTCGGGGGTGGGGGTCC (guide RNA; chemistry not fully specified) [SluD88]	7
CGCCCAGCTCCAGTCCTGTGAT (guide RNA; chemistry not fully specified) [SluU27]	1
CGCCCCCTAGCggccggggagg (guide RNA; as printed in the source, key not given here) [SluU41]	13
CGCCGAAGCGGGCGGAGCCGGC (guide RNA; chemistry not fully specified) [SluD58]	33
CGCGCCAGACGCTCCCCAGAGC (listed as DNA, chemistry not fully specified) [SluD34]	71
CGGAGCGGTTGTGAACTGGCAG (guide RNA; chemistry not fully specified) [SluU20]	30
CGGATCACAGGACTGGAGCTGG (guide RNA; chemistry not fully specified) [SluU29]	67
CGGCTCCGCCCGCTTCGGCGGT (guide RNA; chemistry not fully specified) [SluD60]	0
CGTGGATGGGCAAACTGCAGGC (guide RNA; chemistry not fully specified) [SluD12]	44
CTAGCggccggggagggagggg (guide RNA; as printed in the source, key not given here) [SluU47]	0
CTCAGTGCATCCAAAACGTGGA (guide RNA; chemistry not fully specified) [SluD77]	17
CTCCACGCACCCCCACCTATCG (guide RNA; chemistry not fully specified) [SluD22]	21
CTCCGAGAGCAGCGCAAGTGAG (guide RNA; chemistry not fully specified) [SluD52]	6
CTGCAGTTTGCCCATCCACGTC (guide RNA; chemistry not fully specified) [SluD10]	18
CTTCGAgccccgttcgccggcc (guide RNA; as printed in the source, key not given here) [SluU61]	14
CTTGTGCATGACGCCCTGCTCT (listed as DNA, chemistry not fully specified) [SluD32]	94
CTTTGCGAACCAACGATAGGTG (guide RNA; chemistry not fully specified) [SluD25]	41
CTTTTATTCGCGAGGGTCGGGG (guide RNA; chemistry not fully specified) [SluD93]	18
CTTTTGCCAAACCCGCTTTTTC (guide RNA; chemistry not fully specified) [SluD41]	6

Same assay, conditions: single-cut; SluCas9 RNP; vehicle-treated samples; 72 hrs post nucleofection; wild-type allele

Substance	indel efficiency (Sanger sequencing and ICE analysis)
CCTGTAGCCTGTCAGCGAGTCG (listed as DNA, chemistry not fully specified) [SluD68]	high editing IN4DEL efficiency
CGCGCCAGACGCTCCCCAGAGC (listed as DNA, chemistry not fully specified) [SluD34]	high editing IN4DEL efficiency
CTTGTGCATGACGCCCTGCTCT (listed as DNA, chemistry not fully specified) [SluD32]	high editing IN4DEL efficiency
